Results from PubChem BioAssay (NCI).
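Tested at 5 concentrations; 48 h exposure; 96-well plates; endpoints linearly interpolated, else capped at highest concentration. Abbreviation: GI50, concentration required for 50% inhibition of growth. At the TGI there is no net growth.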

Experiments:
Assay in all cases: DTP human tumour cell line panel, 48 h
[1] = system: SF-295 CNS
[2] = system: BT-549 breast
[3] = system: HOP-92 NSCLC
[4] = system: IGROV1 ovarian
[5] = system: PC-3 prostate
[6] = system: HCT-15 colon
[7] = system: SF-539 CNS
[8] = system: HCC-2998 colon
[9] = system: MDA-MB-231 breast
[10] = system: SR leukemia

SMILES | TGI [1] [µM] | TGI [2] [µM] | TGI [3] [µM] | TGI [4] [µM] | TGI [5] [µM] | TGI [6] [µM] | TGI [7] [µM] | TGI [8] [µM] | TGI [9] [µM] | GI50 [1] [µM] | GI50 [2] [µM] | GI50 [3] [µM] | GI50 [4] [µM] | GI50 [5] [µM] | GI50 [6] [µM] | GI50 [7] [µM] | GI50 [8] [µM] | GI50 [9] [µM] | TGI [10] [µM]
C=c1c2ccccc2oc2nc3[nH]c(N)c(C#N)c(N)c3c(=N)c12 | > 100 | > 100 | > 100 | 42.5 | 66.9 | > 100 | 71.5 | 66.7 | > 100 |  |  |  |  |  |  |  |  |  | 
O=C(/C=C/c1cc2ccccc2[nH]c1=O)c1ccc(O)cc1 | 44 | 5.35 | 23.2 | 45.1 | 55.3 | 12.8 | 8.64 | 16 | 15 | 7.04 | 1.95 | 3.26 | 4.35 | 5.39 | 2.71 | 2.55 | 4.13 | 3.51 | 
O=C(Cn1cc(I)c(C(=O)NCC(O)CO)n1)NCC(O)CO (stereo not drawn) | > 100 |  | > 100 | > 100 |  | > 100 | > 100 | > 100 |  |  |  |  |  |  |  |  |  |  | 
CSCCC(NOC(=O)Cc1ccccc1)P(=O)(O)c1ccccc1 (stereo not drawn) | > 100 |  | > 100 | > 100 | > 100 | > 100 |  | > 100 | > 100 |  |  |  |  |  |  |  |  |  | > 100
COc1ccc(CNCCN2C(=O)c3ccc4c5c(ccc(c35)C2=O)C(=O)N(CCNCc2ccc(OC)c(OC)c2OC)C4=O)c(OC)c1OC |  |  | 3.44 |  |  |  |  | 0.59 | 2.37 |  |  | 1.56 |  |  |  |  | 0.167 | 0.239 | 
COc1c(C(=O)CC2c3c(cc4oc(C)cc(=O)c4c3OC)OC(=N)C2c2nc3ccccc3[nH]2)c(O)c(OC)c2occc12 (stereo not drawn) | > 100 | > 100 | > 100 | > 100 | > 100 | > 100 |  | > 100 | > 100 |  |  |  |  |  |  |  |  |  | 
COc1ccc(/C=N/NC(=O)NCCNCCO)cc1 | > 100 |  | > 100 | > 100 |  | > 100 | > 100 |  |  |  |  |  |  |  |  |  |  |  | > 100
CN(C)c1ccc(/C=C(\C#N)C(=O)c2ccccc2)cc1Br | > 100 |  | > 100 |  |  |  | > 100 | > 100 |  |  |  |  |  |  |  |  |  |  | > 100
CCN1CCC(O)(/C=C/c2ccc(Cl)c(Cl)c2)C(C(=O)/C=C/c2ccc(Cl)c(Cl)c2)C1 (stereo not drawn) | 1.74 | 2.01 | 1.58 | 1.71 | 1.05 | 4.52 | 3.55 | 3.25 | 1.6 |  |  |  |  |  |  |  |  |  | 
CCc1cc2c(cc1O)CC[C@@H]1[C@@H]2CC[C@]2(C)[C@@H](O)CC[C@@H]12 | 12.1 |  |  | 28.4 | 37.3 | 29.2 | 9.5 | 24 | 21.4 |  |  |  |  |  |  | 3.27 |  |  | 10.9
N#Cc1ccccc1C#C/C=C\C#Cc1ccccn1 | 52.7 |  | > 100 | 36.7 | 40.6 | 70 | 45.1 | 27.6 |  |  |  |  |  |  |  |  |  |  | 36.2
CCOC1=C2N=C(C(CC)c3ccc(F)cc3)N=C2C(=O)c2ccccc21 (stereo not drawn) | 63.7 |  | 66.3 | > 100 |  | > 100 | 21.6 | > 100 |  |  |  |  |  |  |  |  |  |  | 89.2
CCCC(CCC(=O)O)(CCC(=O)O)[N+](=O)[O-] | > 100 | > 100 | > 100 | > 100 | > 100 | > 100 | > 100 |  | > 100 |  |  |  |  |  |  |  |  |  | > 100
C=C1C(=O)OC2C=C(C)CC3C=C(CCC=C(C)CCC12)C(=O)O3 (stereo not drawn) | 200 |  | 116 | 115 |  | 131 | 199 | 105 |  |  |  |  |  |  |  |  |  |  | 
CN(C)CC(O)CNC(=O)Nc1ccccc1 (stereo not drawn) | > 100 | > 100 | > 100 | > 100 | > 100 | > 100 | > 100 | > 100 | > 100 |  |  |  |  |  |  |  |  |  | 
C#CCN1C(=O)CN2C(Cl)(Cl)C2(c2ccccc2)c2cc(Cl)ccc21 (stereo not drawn) | > 100 |  | > 100 |  |  | > 100 |  | > 100 |  |  |  |  |  |  |  |  |  |  | > 100
CC(C)c1cccc(C(C)C)c1NC(=O)/C(Cc1nc2ccc(Cl)cc2[nH]c1=O)=N\NC(=O)C[N+](C)(C)C | > 100 |  | > 100 | > 100 |  |  | > 100 | > 100 |  |  |  |  |  |  |  |  |  |  | > 100
O=C1C(Nc2ccc(S(=O)(=O)Nc3cnc4ccccc4n3)cc2)=CC(=Nc2ccc(S(=O)(=O)Nc3cnc4ccccc4n3)cc2)c2ccccc21 | 30.3 |  | 28.7 | 37.4 | 52.9 | 33 | 35.7 | 31.3 | 70.2 |  |  |  |  |  |  |  |  |  | > 73.9
COC(=O)c1cc(NC(=O)Cn2c3ccccc3c3ccccc32)cn1C | 86.3 | 71.3 |  | > 100 | > 100 | > 100 | 63.1 | > 100 | 48.8 |  |  |  |  |  |  |  |  |  | > 100
COC(=O)[C@@]1(Cc2ccc(OC(C)=O)cc2)Cc2cc3ccccc3n2N1 | > 100 | > 100 | > 100 | > 100 | > 100 | > 100 | > 100 |  | > 100 |  |  |  |  |  |  |  |  |  | 70.6
CC(C)C(N=C1CC2CCC1(C(=O)Nc1ccccc1O)C2(C)C)c1ccccc1 (stereo not drawn) | > 10 |  | > 10 | > 10 |  | > 10 | > 10 | > 10 |  |  |  |  |  |  |  |  |  |  | > 10
CC(=O)OC1CC[C@@]2(C)C(=CC[C@@H]3[C@@H]2CC[C@]2(C)Nc4c(cnn4-c4ccc(F)cc4)C[C@@H]32)C1 (stereo partly drawn) | 36.4 | > 100 | > 100 | > 100 | > 100 | > 100 | 17.2 | > 100 | > 100 |  |  |  |  |  |  |  |  |  | 
N#Cc1cc([N+](=O)[O-])ccc1NC(=O)C(=O)Nn1c(=S)[nH]c2ccccc2c1=O | > 100 |  | > 100 | > 100 |  | > 100 | > 100 | > 100 |  |  |  |  |  |  |  |  |  |  | > 100
Cn1c(SCc2ccc([N+](=O)[O-])cc2)nnc1C12CC3CC(CC(C3)C1)C2 | > 10 | > 10 | > 10 | > 10 | > 10 | > 10 | > 10 | > 10 | > 10 |  |  |  |  |  |  |  |  |  | 
